Data taken from patent US20210127673A1, “HERBICIDES” (SYNGENTA PARTICIPATIONS AG, priority 2016, published 2021).

Experiments:
Assay type in all cases: in vivo
Details in all cases: evaluated after 13 days
Avena fatua (AVEFA) [1] = assay: Post-emergence herbicidal activity, Avena fatua
How it was run: (§1)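 Pot-grown plants in standard soil were sprayed 8 days after sowing with active ingredient in acetone/water (50:50) containing 0.5% Tween 20. Glasshouse at 24/16 °C day/night, 14 h light, 65% humidity, watered twice daily. Damage scored after 13 days on 0 (none) to 5 (total) scale.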

[2] = tested on: Triticum aestivium (TRZAW); assay: Post-emergence herbicidal activity, Triticum aestivium; design: key: 5=total damage to plant; 0=no damage to plant
How it was run: as §1

[3] = tested on: Alopecurus myosuroides (ALOMY); assay: Pre-emergence herbicidal activity, Alopecurus myosuroides; design: key: 5=total damage to plant; 0=no damage to plant
How it was run: (§2)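 First, seeds were sown in standard soil and held one day under glasshouse conditions. Next, soil was sprayed with the active ingredient formulated in 50:50 acetone/water plus 0.5% Tween 20. Plants then grew at 24/16 °C day/night with 14 h light and 65% humidity before evaluation after 13 days.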

Lolium perenne (LOLPE) [4] = assay: Pre-emergence herbicidal activity, Lolium perenne
How it was run: as §2

Lolium perenne (LOLPE) [5] = assay: Post-emergence herbicidal activity, Lolium perenne
How it was run: as §1

[6] = tested on: Echinochloa crus-galli (ECHCG); assay: Post-emergence herbicidal activity, Echinochloa crus-galli; design: key: 5=total damage to plant; 0=no damage to plant
How it was run: as §1

Avena fatua (AVEFA) [7] = assay: Pre-emergence herbicidal activity, Avena fatua
How it was run: as §2

[8] = tested on: Echinochloa crus-galli (ECHCG); assay: Pre-emergence herbicidal activity, Echinochloa crus-galli
How it was run: as §2

[9] = tested on: Triticum aestivium (TRZAW); assay: Pre-emergence herbicidal activity, Triticum aestivium; design: key: 5=total damage to plant; 0=no damage to plant
How it was run: as §2

[10] = tested on: Alopecurus myosuroides (ALOMY); assay: Post-emergence herbicidal activity, Alopecurus myosuroides; design: key: 5=total damage to plant; 0=no damage to plant
How it was run: as §1

Setaria faberi (SETFA) [11] = assay: Post-emergence herbicidal activity, Setaria faberi; design: key: 5=total damage to plant; 0=no damage to plant
How it was run: as §1

Setaria faberi (SETFA) [12] = assay: Pre-emergence herbicidal activity, Setaria faberi; design: key: 5=total damage to plant; 0=no damage to plant
How it was run: as §2

Structure (SMILES)	Control of AVEFA after post-emergence application (score 0-5) (Avena fatua (AVEFA) [1]; 250 g/ha)	Control of TRAZW after post-emergence application (score 0-5) ([2]; 250 g/ha)	Control of ALOMY after pre-emergence application (score 0-5) ([3]; 250 g/ha)	Control of LOLPE after pre-emergence application (score 0-5) (Lolium perenne (LOLPE) [4]; 250 g/ha)	Control of LOLPE after post-emergence application (score 0-5) (Lolium perenne (LOLPE) [5]; 250 g/ha)	Control of ECHCG after post-emergence application (score 0-5) ([6]; 250 g/ha)	Control of AVEFA after pre-emergence application (score 0-5) (Avena fatua (AVEFA) [7]; 250 g/ha)	Control of ECHCG after pre-emergence application (score 0-5) ([8]; 250 g/ha)	Control of TRAZW after pre-emergence application (score 0-5) ([9]; 250 g/ha)	Control of ALOMY after post-emergence application (score 0-5) ([10]; 250 g/ha)	Control of SETFA after post-emergence application (score 0-5) (Setaria faberi (SETFA) [11]; 250 g/ha)	Control of SETFA after pre-emergence application (score 0-5) (Setaria faberi (SETFA) [12]; 250 g/ha)	Control of AVEFA after post-emergence application (score 0-5) (Avena fatua (AVEFA) [1]; 1000 g/ha)	Control of TRAZW after post-emergence application (score 0-5) ([2]; 1000 g/ha)	Control of ALOMY after pre-emergence application (score 0-5) ([3]; 1000 g/ha)	Control of LOLPE after pre-emergence application (score 0-5) (Lolium perenne (LOLPE) [4]; 1000 g/ha)	Control of LOLPE after post-emergence application (score 0-5) (Lolium perenne (LOLPE) [5]; 1000 g/ha)	Control of ECHCG after post-emergence application (score 0-5) ([6]; 1000 g/ha)	Control of AVEFA after pre-emergence application (score 0-5) (Avena fatua (AVEFA) [7]; 1000 g/ha)	Control of ECHCG after pre-emergence application (score 0-5) ([8]; 1000 g/ha)	other results
O=C(Nc1ccc(-c2cncc(F)c2)nc1C(F)(F)F)OCCC(F)(F)F [Compound B96]	3	0	0	1	2	5	1	4	0	0	5	5									
O=C(Nc1ccc(-c2cncc(F)c2)nc1C(F)(F)F)N1CCSC1 [Compound B68, N-[6-(5-fluoro-3-pyridyl)-2-(trifluoromethyl)-3-pyridyl]thiazolidine-3-carboxamide]													3	2	1	1	2	5	2	3	Control of TRAZW after pre-emergence application (score 0-5) ([9]; 1000 g/ha): 0; Control of ALOMY after post-emergence application (score 0-5) ([10]; 1000 g/ha): 0; Control of SETFA after post-emergence application (score 0-5) (Setaria faberi (SETFA) [11]; 1000 g/ha): 5; Control of SETFA after pre-emergence application (score 0-5) (Setaria faberi (SETFA) [12]; 1000 g/ha): 4
O=C(NCC1CCCCC1)Nc1ccc(-c2cncc(F)c2)nc1C(F)(F)F [Compound B80]	2	0	0	2	1	1	1	1	0	0	2	2									
C#CC(C)(C)NC(=O)Nc1ccc(-c2cncc(F)c2)nc1C(F)(F)F [Compound B102]													4	1	0	2	3	5	3	4	Control of TRAZW after pre-emergence application (score 0-5) ([9]; 1000 g/ha): 0; Control of ALOMY after post-emergence application (score 0-5) ([10]; 1000 g/ha): 1; Control of SETFA after post-emergence application (score 0-5) (Setaria faberi (SETFA) [11]; 1000 g/ha): 5; Control of SETFA after pre-emergence application (score 0-5) (Setaria faberi (SETFA) [12]; 1000 g/ha): 5
